IC50 data for 14 compounds are collected here from patent US12012404B2, “Pyrimidoheterocyclic compounds and application thereof” (D3 BIO (WUXI) CO., LTD., priority 2020, dated 2024).

Where a name gives a salt, the structure may show the parent alone.

The subject of assay [1] is KRAS^G12C-mutated H358 cells. The experiment in a line: H358 cell assay: inhibition of proliferation (CellTiter-Glo, 5 days). It counts as cell-based. The note with it: NCI-H358 cells, 5 days incubation. On the procedure:
Compounds were assayed for IC50 of inhibition of proliferation of KRAS^G12C-mutated H358 cells.
The main instrument used in this assay was a Nivo multi-label analyzer (PerkinElmer).
2.4 Method of the Assay: • 1) NCI-H358 cells were inoculated in a white 96-well plate, and each well contained 80 μL of cell suspension and 4000 NCI-H358 cells. […] The assay was carried out in duplicate. 78 μL of medium was added to the intermediate plate, and then 2 μL of the serially diluted compound was transferred to each well of the intermediate plate according to the corresponding position. After mixing well, 20 μL per well was transferred to the cell plate. […] The cell plate was incubated in a carbon dioxide incubator for 5 days. Another cell plate was prepared, and the signal value of the cell plate was read on the day of compound addition as the maximum value (Max value in the equation below) to participate in data analysis. 25 μL of cell viability chemiluminescence detection reagent was added to each well of the cell plate, and the plate was incubated at room temperature for 10 minutes to stabilize the luminescence signal. A multi-label analyzer was used for reading the plate. • 3) […]
(In general: In ATP-based viability assays light output follows the ATP content of the culture.)

Assay [2] relates to KRAS^G12C-mutated MIA-PA-CA-2 cells. Put plainly: Inhibition of proliferation of KRAS^G12C-mutated MIA-PA-CA-2 cells (CellTiter-Glo, 72 h). Type of assay: cell-based, human. On the procedure:
Compounds were assayed for IC50 of inhibition of proliferation of KRAS^G12C-mutated MIA-PA-CA-2 cells.
The main reagent used in this assay included CellTiter-Glo (Promega, Cat. No. G7573).
The main instrument used in this assay was PerkinElmer EnVision multi-function microplate reader.
1.4 Method of the Assay • 1) Adherent cells were digested with trypsin to form a cell suspension, and the cell suspension was counted for later use. • 2) An appropriate amount of cells was added into a centrifuge tube, and a cell culture medium was added to make up the required volume; then the cells were plated to a 96-well plate at a final density of 2000 cells/well, 100 μL of culture medium. • 3) After incubating for 24 hr, the compound was formulated to 10 mM with DMSO, and serially diluted 3-fold with DPBS (Dulbecco's Phosphate Buffered Saline) to 9 points; 10 μL was added to each well in duplicate. 10 μL of DPBS per well was added to the assay control wells (Con). • 4) On the same day, 50 μL of CellTiter Glo was added to another cell culture plate without compounds, and the fluorescence value was read by EnVision. […] The fluorescence value was read by EnVision. • 6) Data analysis: The inhibition rate of cells in each well was calculated according to the following equation: […]

A word on the IC50: it is the concentration at which inhibition is half-maximal.

Take `C=CC(=O)N1CCN(c2nc(OCC3CCCN3C)nc3c2CNC(c2c(Cl)c(C)cc4[nH]ncc24)C3)CC1CC#N` (single isomer, unassigned) [4B hydrochloride]: in assay [1], the IC50 turned out to be 27 nM. On to `C=C(F)C(=O)N1CCN(c2nc(OCC3CCCN3C)nc3c2COC(c2c(F)c(N)cc(C)c2C(F)(F)F)C3)CC1CC#N` (single isomer, unassigned) [8B hydrochloride], for which the IC50 in assay [2] (72 h incubation) was 2.7 nM; in assay [1], less than 4.6 nM. Consider `C=CC(=O)N1CCN(c2nc(OCC3CCCN3C)nc3c2COC(c2c(Cl)c(C)cc4[nH]ncc24)C3)CC1CC#N` (single isomer, unassigned) [Compound 5B], for which inhibition in assay [1] was half-maximal at 12.9 nM (IC50).

As for `C=CC(=O)N1CCN(c2nc(OCC3CCCN3C)nc3c2CN(C)C(c2c(Cl)c(C)cc4[nH]ncc24)C3)CC1CC#N` (single isomer, unassigned) [Compound 6A], the IC50 in assay [1] is less than 4.6 nM. Take `C=CC(=O)N1CCN(c2nc(OCC3CC(F)CN3C)nc3c2COC(c2c(F)c(N)cc(C)c2C(F)(F)F)C3)C(C)C1` (single isomer, unassigned) [Compound 9B]: the values for the IC50 in assay [2] (72 h incubation) and in assay [1] were 6.98 nM and 5.5 nM, respectively. Turning to `C=CC(=O)N1CCN(c2nc(OCC3CCCN3C)nc3c2COC(c2c(F)c(N)cc(C)c2C(F)(F)F)C3)C(C)C1` (single isomer, unassigned) [Compound 18B], the figures for the IC50 in assay [2] (72 h incubation) and in assay [1] were 3.29 nM and 4.7 nM, respectively. For the compound `C=CC(=O)N1CCN(c2nc(OC[C@@H]3CCCN3C)nc3c2CN(C)C(c2cccc4ccccc24)C3)C[C@@H]1CC#N` (some centres unmarked) [Compound 1], the IC50 in assay [2] (72 h incubation) stood at 5.21 nM; in assay [1], 68.2 nM. Take `C=CC(=O)N1CCN(c2nc(OC[C@@H]3CCCN3C)nc3c2COC(c2cccc4cccc(Cl)c24)C3)C[C@@H]1CC#N` (some centres unmarked) [Compound 2]: the IC50 in assay [1] worked out at 19 nM.

As to `C=CC(=O)N1CCN(c2nc(OC[C@@H]3CCCN3C)nc3c2COC(c2c(F)c(N)cc(C)c2C(F)(F)F)C3)C[C@@H]1C` (some centres unmarked) [Compound 10], the midpoint of inhibition in assay [1] (Homo sapiens, 120 h), the IC50, lay at 70 nM. As to `C=CC(=O)N1C[C@H](C)N(c2nc(OC[C@@H]3CCCN3C)nc3c2COC(c2c(F)c(N)cc(C)c2C(F)(F)F)C3)C[C@H]1C` (some centres unmarked) [Compound 11], the IC50 in assay [1] came out at 6.7 nM. Take `C=CC(=O)N1CCN(c2nc(OCC34CCCN3CCC4)nc3c2COC(c2c(F)c(N)cc(C)c2C(F)(F)F)C3)C(C)C1` (centres unmarked) [Compound 12]: the IC50 in assay [2] (72 h incubation) is 1.3 nM; in assay [1], 2.5 nM.

In assay [1] (Homo sapiens, 120 h), `C=CC(=O)N1CCN(c2nc(OC[C@@H]3CCCN3C)nc3c2COC(c2c(F)c(N)cc(C)c2C(F)(F)F)C3)[C@H](C)C1` (some centres unmarked) [Compound 13] registered an IC50 of 32.6 nM.

In assay [1] (Homo sapiens, 120 h), `C=CC(=O)N1CCN(c2nc(OC[C@@H]3CCCN3C)nc3c2COC(c2c(F)c(N)cc(C)c2C(F)(F)F)C3)C[C@H]1C` (some centres unmarked) [Compound 15] came in with an IC50 of 9.2 nM. As for `C=C(F)C(=O)N1CCN(c2nc(OCC34CCCN3CCC4)nc3c2COC(c2c(F)c(N)cc(C)c2C(F)(F)F)C3)C[C@@H]1CC#N` (some centres unmarked) [Compound 16], the IC50 in assay [2] (Homo sapiens, MIA PaCa-2, 72 h incubation) was 2.22 nM; in assay [1] (Homo sapiens, 120 h) it was 1.7 nM.
